Test results from US7060733B2, “Methods for treating pancreatitis with curcumin compounds and inhibitors of reactive oxygen species” (The Regents of the University of California, priority 2002, dated 2006).
Entries after “also recorded” stand apart in the source; their conditions may differ.

Legend:
[1] = system: rats with cerulein pancreatitis or ethanol/CCK pancreatitis; assay: Serum amylase and lipase in cerulein and ethanol/CCK pancreatitis models; format: in vivo; settings: rat; for inhibition of the increase in serum amylase and lipase: curcumin 35 mg/kg/h i.v. for 6 h
Method: 5 μg/kg/h of Cerulein (American Peptide Co., Sunnyvale, Calif.) or vehicle control was administered to male Sprague-Dawley rats (275-350 g; Harlan, Madison, Wis.) by continuous 6-hour intravenous infusion by conventional methods known in the art. See Gukovskaya A S, et al. (1997) J. Clin. Invest. 100:1853-1862; Gukovsky I, et al. (1998) Am. J. Physiol. 275:[…]-[…]; and Zaninovic V, et al. (2000) Am. J. Physiol. 279:[…]-[…], which are herein incorporated by reference. Animals were euthanized by CO2-induced asphyxiation, and blood and the pancreas were harvested for measurements. Curcumin (Sigma Chemical, St. Louis, Mo.) was dissolved in dimethyl sulfoxide (DMSO) and administered to each animal by i.v. infusion together with cerulein at a dose of 35 mg/kg/h. Thus, during the 6-hour treatment, each animal received a total of 200 mg/kg (0.5 mmol/kg) of curcumin. Serum amylase and lipase were measured under contract using a Hitachi 707 analyzer (Antech Diagnostics, Irvine Calif.) and methods known in the art. […] Thus, curcumin inhibits […] pancreatitis. An ethanol/CCK-induced pancreatitis model as previously described was used. See Pandol S J, et al. (1999). Specifically, Sprague-Dawley rats (400-500 g; Harlan, Madison, Wis.) were given an intragastric infusion of ethanol-containing or control diet for 6 weeks followed by 6-hour infusion of a low dose (3000 pmol/kg/h) CCK-8 (Peninsula Laboratories, Belmont, Calif.). […] CCK-8 causes pancreatitis in both rats and mice by stimulating the activation of the inflammatory signals, i.e. NF-κB and AP-1, in the pancreatic acinar cell. Animals were euthanized by CO2-induced asphyxiation, and blood and the pancreas were harvested for measurements. Curcumin (Sigma Chemical, St. Louis, Mo.) was dissolved in dimethyl sulfoxide (DMSO) and administered to each animal by i.v. infusion together with CCK-8 at a dose of 35 mg/kg/h. Thus, during the 6-hour treatment, each animal received a total of 200 mg/kg (c. 0.5 mmol/kg) of curcumin. Serum amylase and lipase were measured under contract using a Hitachi 707 analyzer (Antech Diagnostics, Irvine Calif.) and methods known in the art. […] Thus, curcumin inhibits […] pancreatitis.

[2] = system: NF-κB; assay: EMSA for NF-κB on nuclear extracts from pancreatic tissue; format: in vivo, rat; settings: for NF-κB activation in the pancreas: rat
Method: Specifically, aliquots of nuclear extracts with equal amounts of protein (about 2 to about 10 mg) were mixed in 20 μl reactions with a buffer containing 10 mM HEPES (pH 7.8), 50 mM KCl, 0.1 mM EDTA, 1 mM DTT, 10% (vol/vol) glycerol, and 3 μg of poly(dI-dC).
The samples were electrophoresed at room temperature in 0.5×TBE buffer (1× TBE: 89 mM Tris base, 89 mM boric acid, 2 mM EDTA) on a non-denaturing 4.5% polyacrylamide gel at 200 V. The gels were dried and directly analyzed in the PhosphorImager (Molecular Dynamics, Sunnyvale, Calif.).
Nuclear protein extracts were prepared by methods known in the art. […] Briefly, samples of pancreatic tissue or isolated acini were rinsed in ice-cold PBS and homogenized in hypotonic Buffer A (20 mM β-glycerophosphate, 10 mM HEPES, pH 7.6, 1.5 mM MgCl2, 10 mM KCl, 10 mM Na2MoO4, 0.1 mM Na3VO4, 1 mM dithiothreitol (DTT), 1 mM phenylmethylsulfonyl fluoride (PMSF), 5 μg/ml each of protease inhibitors pepstatin, leupeptin, chymostatin, antipain and aprotinin). After incubating on ice for about 20 to about 25 minutes, the nonionic detergent Igepal CA-630 (Sigma, St. Louis, Mo.) was added to a final concentration of 0.3 to 0.4% (v/v), followed by an additional incubation on ice for about 1 to about 2 minutes. The crude nuclear pellet was collected by microcentrifugation for 30 seconds. The supernatant (cytosolic protein) was removed, and the nuclear pellet was resuspended in the high-salt buffer C (25% glycerol, 20 mM β-glycerophosphate, 10 mM HEPES, 1.5 mM MgCl2, 420 mM NaCl, 0.2 mM EDTA, 10 mM Na2MoO4, 0.1 mM Na3VO4, 1 mM DTT, 1 mM PMSF, 5 μg/ml each of protease inhibitors pepstatin, leupeptin, chymostatin, antipain and aprotinin. After rotating at 4° C. for up to 1 hour, nuclear membranes were pelleted by microcentrifugation for 10 minutes, and the clear supernatant (nuclear extract) was aliquoted and stored at −80° C. Protein concentration in the nuclear extract was determined by the Bio-Rad protein assay (Bio-Rad Laboratories, Hercules, Calif.).

[3] = system: trypsin; assay: Trypsin activation assay in pancreatic tissue homogenates; format: in vivo, rat; settings: for inhibition of intrapancreatic trypsin activation / active trypsin versus pancreatitis without curcumin: rat
Method: Pancreatic tissue homogenates were prepared by methods known in the art. See Gukovskaya A S, et al. (2002); Gukovsky I, et al. (1998); Sandoval D, et al. (1996) Gastroenterology 111:1081–1091; and Vaquero E, et al. (2001), which are herein incorporated by reference. Active trypsin was measured in the pancreatic tissue homogenates by using a specific substrate, Boc-GLn-Ala-Arg-A MC (Bachem, Torrance, Calif.). See Kawabata S. et al. (1988) Eur. J. Biochem. 172:17–25, which is herein incorporated by reference. Cleavage of the substrate by trypsin releases 7-amino-4-methylcoumarin (AMC), which emits fluorescence at 440 nm with excitation at 380 nm. Trypsin activity in each sample was determined using a standard curve for purified trypsin.
Specifically, about ⅓ of rat pancreas was homogenized in 2 ml ice-cold buffer A (5 mM MES, pH 6.5; 1 mM MgSO4, 250 mM sucrose). Then 2 ml of buffer B (50 mM Tris, pH 8.0; 150 mM NaCl, 1 mM CaCl2, 0.1 mg/ml BSA) was mixed with 25 μl of the homogenate and kept on ice. Then 2 μl of 20 mM substrate solution (20 mM Boc-Gln-Ala-Arg-AMC.HCl in DMSO) was added to start the reaction. The sample was mixed well and incubated at 37° C. The reaction product was measured with a spectrofluorimeter for 20 minutes at ex=380 nm; em=440 nm.

[4] = molecular target: T1, CCK receptor (Rattus norvegicus, UniProt P30551); assay: In vivo pancreatic secretion assay
T1 construct: from tissue; host or cells: living rat, pancreas (acinar cells)
T1 sequence (P30551 1-444): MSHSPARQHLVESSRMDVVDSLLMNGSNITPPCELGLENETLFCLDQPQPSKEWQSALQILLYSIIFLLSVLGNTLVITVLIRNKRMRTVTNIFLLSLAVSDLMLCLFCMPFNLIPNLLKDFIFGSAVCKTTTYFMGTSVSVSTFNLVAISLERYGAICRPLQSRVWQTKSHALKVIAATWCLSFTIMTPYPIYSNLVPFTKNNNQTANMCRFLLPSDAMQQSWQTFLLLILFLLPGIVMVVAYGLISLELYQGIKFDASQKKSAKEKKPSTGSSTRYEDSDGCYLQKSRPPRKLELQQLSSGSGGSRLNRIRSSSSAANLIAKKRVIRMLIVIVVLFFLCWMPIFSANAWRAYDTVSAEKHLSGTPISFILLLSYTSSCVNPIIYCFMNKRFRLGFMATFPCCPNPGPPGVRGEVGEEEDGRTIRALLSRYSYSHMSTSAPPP
Method: To rule out the possibility that the effect of curcumin was through inhibition of the action of cerulein or CCK-8 on CCK receptor activation, the effect of pancreatic secretion was tested.
Pancreatic secretion in test rats was measured in vivo by methods known in the art. See Gukovskaya A S, et al. (2002). Briefly, biliopancreatic secretion was allowed to drain freely for 30 minutes before initiation of the experiment. Then secretion was collected in tubes in 10-minute fractions to determine the basal amylase output, after which 0.25 μg/kg cerulein was given as an i.v. bolus and collection continued for 40 minutes in a similar manner. Collection volumes were measured by weigh, and the amylase output was calculated by determining amylase concentration in the collected fractions. The mean amylase output obtained from two consecutive 10-minute fractions after the stabilization period was taken as the basal secretion and considered as 100%. The results were expressed as percentage increase over basal amylase output 40 minutes after cerulein or vehicle infusion.

[5] = system: IκBα and IκBβ; assay: Western blot of IκBα and IκBβ in cytosolic extracts from pancreatic tissue; format: in vivo, rat
Method: IκBα and IκBβ levels were measured in cytosolic protein extracts from pancreatic tissue, prepared according to Example 12, by Western blot analysis using polyclonal antibodies sc-371 and sc-945, respectively (Santa Cruz Biotechnology, Santa Cruz, Calif.) using methods known in the art. […] Specifically, IκBα and IκBβ levels were measured in cytosolic protein extracts from pancreatic tissue by Western blot analysis using polyclonal antibodies sc-371 and sc-945, respectively (Santa Cruz Biotechnology, Santa Cruz, Calif.). […] Specifically, proteins in the cytosolic extract were separated by SDS-PAGE at 120 V using precast Tris-glycine gels and Mini-Cell gel apparatus (Novex, San Diego, Calif.). Separated proteins were electrophoretically transferred to polyvinylidene difluoride membrane for 2 hours at 30 V, using a Novex blot module. Nonspecific binding was blocked by overnight incubation of the membrane in 5% (wt/vol) nonfat dry milk in Tris-buffered saline (TBS, pH 7.5). Blots were then incubated for 2 hours at room temperature with primary antibodies in antibody buffer containing 1% (wt/vol) nonfat dry milk in TTBS (0.05% vol/vol Tween 20 in TBS), washed three times with TTBS, and finally incubated for 1 hour with a peroxidase-labeled secondary antibody in the antibody buffer. Blots were developed for visualization using enhanced chemiluminescence detection kit (Pierce Chemical, Rockford, Ill.).

Structure (SMILES): COc1cc(/C=C/C(=O)CC(=O)/C=C/c2ccc(O)c(OC)c2)ccc1O [curcumin]
- inhibition of the increase in serum amylase and lipase ([1]; cerulein pancreatitis): approximately 50%
- serum amylase versus pancreatitis without curcumin ([1]; cerulein pancreatitis, p<0.05): significantly inhibited; also recorded: significantly lower
- serum lipase versus pancreatitis without curcumin ([1]; cerulein pancreatitis, p<0.05): significantly inhibited; also recorded: significantly lower
- inhibition of the increase in serum amylase and lipase ([1]; ethanol/CCK pancreatitis): approximately 50%
- serum amylase and lipase versus pancreatitis without curcumin ([1]; ethanol/CCK pancreatitis, p<0.05): significantly inhibited; also recorded: significantly lower
- NF-κB activation in the pancreas ([2]; cerulein pancreatitis): inhibits; also recorded: attenuated
- NF-κB activity in the pancreas of control rats ([2]; control (vehicle-infused) rats treated with curcumin): Virtually no NF-κB activity was detected
- NF-κB activation in the pancreas ([2]; ethanol/CCK pancreatitis): inhibits
- inhibition of intrapancreatic trypsin activation ([3]; EtOH+CCK model): greater than 50%
- inhibition of intrapancreatic trypsin activation ([3]; cerulein model): greater than 70%
- active trypsin versus pancreatitis without curcumin ([3]; cerulein pancreatitis): significantly lower; also recorded: significantly inhibited
- basal level of active pancreatic trypsin ([3]; ethanol-fed rats, EtOH+CCK model, basal): unaffected
- active trypsin versus pancreatitis without curcumin ([3]; ethanol/CCK pancreatitis): significantly lower; also recorded: significantly inhibited
- effect on cerulein/CCK-induced pancreatic secretion in vivo ([4]; rat, versus without curcumin): not statistically different; also recorded: did not appear to have an effect
- cerulein-induced amylase secretion, of the basal amylase output ([4]; rats treated with curcumin, 0.25 μg/kg cerulein i.v. bolus, 40 min, n=4): 1000±37%
- decrease (degradation) of IκBα and IκBβ ([5]; cerulein pancreatitis, rat): prevented
- IκBα and IκBβ levels in control animals ([5]; control animals): did not change
- IκB degradation ([5]; ethanol/CCK pancreatitis, rat): prevented; also recorded: inhibits
